Assay results: patent US5821230A, “GnRH antagonist decapeptides” (Ferring BV, priority 1997, dated 1998)
*1 amine or outer side, *2 acyl side, *3 side chain or, on linkers, in order; H or OH if unused. Where a SMILES comes first, the peptide text is derived from it. Side-chain parts run from the residue outwards. [ ]: non-standard residue; d: D form. dPhe(4-NH2) = Nc1ccc(C[C@@H](N)C(=O)O)cc1; dPhe(4-Cl) = N[C@H](Cc1ccc(Cl)cc1)C(=O)O; Phe(4-NH2) = Nc1ccc(C[C@H](N)C(=O)O)cc1; d2Nal = N[C@H](Cc1ccc2ccccc2c1)C(=O)O; Lys(iPr) = CC(C)NCCCC[C@H](N)C(=O)O; dDap = NC[C@@H](N)C(=O)O; CO = O=C([*:1])[*:2]

Experiments:
[1] = examination of injected rats for tolerance and gelling at the point of injection; format: in vivo; conditions: 50 μg per rat sc
LH secretion = assay: in vivo suppression of circulating LH levels in castrated male Sprague-Dawley rats treated subcutaneously; set-up: species or system rat; conditions: for in vivo suppression of LH secretion compared with a reference peptide: dosage not printed at the place; for suppression of LH compared with a reference peptide: standard in vivo rat test as in Example 1
Description: The peptide is hereinafter referred to as Peptide No. 1 and is assayed in vivo to determine its effectiveness to suppress secretion of LH in rats. Measurement of circulating LH levels in castrated male Sprague-Dawley rats treated subcutaneously with the peptide is carried out as reported in C. Rivier et al. Biol. Reproduc., 1983. 29, 374-378. The peptides are first dissolved at a concentration of 1.0 or 10 mg/ml in bacteriostatic water and then further diluted in 0.04M phosphate buffer containing 0.1% BSA. Subsequent dilutions are made in phosphate buffer. The peptides are injected sc, and blood samples (300 μl) are collected under metotane anesthesia. Sera (50 […]) are tested for LH levels in duplicate using reagents provided by the National Pituitary and Hormone Distribution Program of the NIDDK. […] However, 96 hours following injection, the LH levels are only about 75% of those of the Acyline-injected rats.

[2] = hydrophilicity by RP-HPLC retention time, TEAP pH 7.0 gradient; format: physicochemical; conditions: 40% to 70% Buffer B over 30 minutes
Description: Hydrophilicity is tested by measuring retention time using RP-HPLC with a gradient of 40% Buffer B to 70% Buffer B over 30 minutes, with Buffer A being TEAP pH 7.0 and Buffer B being 70% CH3 CN and 30% Buffer A at pH 7.0.

[3] = dosage of 50 micrograms per rat sc

Molecule	gelling at the point of injection [1]	tolerance of the peptide in injected rats [1]	in vivo suppression of LH secretion compared with a reference peptide (LH secretion)	hydrophilicity compared with a reference peptide [2]	duration of action, as classed in words (LH secretion; [3])	suppression of LH compared with a reference peptide (LH secretion; [3])
CNC(=O)NC[C@@H](NC(=O)[C@@H](Cc1ccc(Cl)cc1)NC(=O)[C@@H](Cc1ccc2ccccc2c1)NC(C)=O)C(=O)N[C@@H](CO)C(=O)N[C@@H](Cc1ccc(NC(C)=O)cc1)C(=O)N[C@H](Cc1ccc(NC(C)=O)cc1)C(=O)N[C@@H](CC(C)C)C(=O)N[C@@H](CCCCNC(C)C)C(=O)N1CCC[C@H]1C(=O)N[C@H](C)C(N)=O [Peptide No. 1, Ac-D-2Nal-(4Cl)D-Phe-D-Dpr(methylcarbamoyl)-Ser-4Aph (acetyl)-D-4Aph(acetyl)-Leu-Lys(isopropyl)-Pro-D-Ala-NH2] (Ac-[d2Nal][dPhe(4-Cl)][dDap]([CO-NHMe])S[Phe(4-NH2)](Ac)[dPhe(4-NH2)](Ac)L[Lys(iPr)]P[dA]-NH2)	no significant gelling at the point of injection being detectable	very well tolerated	–	–	–	–
Ac-D-2Nal-D-4Cpa-D-Dpr(methylcarbamoyl)-Ser-4Aph(Gab)(atz)-D-4Aph(Gab)(atz)-Leu-ILys-Pro-D-Ala-NH2 [Peptide No. 5A]	–	–	longer duration of in vivo suppression of LH secretion than Acyline	more hydrophilic than Antide	–	–
Ac-D-2Nal-D-4Cpa-D-Dpr(methylcarbamoyl)-Ser-4Aph(β-Ala)(atz)-D-4Aph(β-Ala)(atz)-Leu-ILys-Pro-D-Ala-NH2 [Peptide No. 5B]	–	–	longer duration of in vivo suppression of LH secretion than Antide	more hydrophilic than Antide	–	–
Ac-β-D-2Nal-D-4Cpa-D-Dpr(methylcarbamoyl)-Ser-4Aph(Hor)-D-Aph(Hor)-Leu-Lys(isopropyl)-Pro-D-Ala-NH2 [Example 5E]	–	–	–	more hydrophilic than Acyline	long-acting	substantially as active as Acyline in suppressing LH level at 1, 2 and 3 days
Ac-β-D-2Nal-D-4Cpa-Gln-Ser-4Aph(hydroorotyl)-D-4Amf(methylcarbamoyl)- Leu-Lys(isopropyl)-Pro-D-Ala-NH2 [Example 8F]	–	–	–	more hydrophilic than Acyline	–	substantially as effective as Acyline for 3 days
